What all share (assay type): physicochemical
The nature of data set [1]: Sublimation temperature Tsubl in sublimation apparatus. The note with it: 10−5 mbar. The source says:
Under nitrogen in a glovebox, 0.5 to 5 g compound are loaded into the evaporation source of a sublimation apparatus. The sublimation apparatus consist of an inner glass tube consisting of bulbs with a diameter of 3 cm which are placed inside a glass tube with a diameter of 3.5 cm. The sublimation apparatus is placed inside a tube oven (Creaphys DSU 05/2.1). The sublimation apparatus is evacuated via a membrane pump (Pfeiffer Vacuum MVP 055-3C) and a turbo pump (Pfeiffer Vacuum THM071 YP). The pressure is measured between the sublimation apparatus and the turbo pump using a pressure gauge (Pfeiffer Vacuum PKR 251). When the pressure has been reduced to 10−5 mbar, the temperature is increased in increments of 10 to 30 K till the compound starts to be deposited in the harvesting zone of the sublimation apparatus. The temperature is further increased in increments of 10 to 30 K till a sublimation rate is achieved where the compound in the source is visibly depleted over 30 min to 1 hour and a substantial amount of compound has accumulated in the harvesting zone. The sublimation temperature, also named Tsubl, is the temperature inside the sublimation apparatus at which the compound is deposited in the harvesting zone at a visible rate and is measured in degree Celsius.

A short description of data set [2]: Rate onset temperature TRO in VTE source with QCM detector. The conditions noted are these: 15 K/min, less than 10−5 mbar. Here is the method: The rate onset temperature (TRO) is determined by loading 100 mg compound into a VTE source. As VTE source a point source for organic materials may be used as supplied by Kurt J. Lesker Company (www.lesker.com) or CreaPhys GmbH (http://www.creaphys.com). The VTE source is heated at a constant rate of 15 K/min at a pressure of less than 10−5 mbar and the temperature inside the source measured with a thermocouple. Evaporation of the compound is detected with a QCM detector which detects deposition of the compound on the quartz crystal of the detector. The deposition rate on the quartz crystal is measured in Angstrom per second. To determine the rate onset temperature, the deposition rate is plotted against the VTE source temperature. The rate onset is the temperature at which noticeable deposition on the QCM detector occurs. For accurate results, the VTE source is heated and cooled three time and only results from the second and third run are used to determine the rate onset temperature.
To achieve good control over the evaporation rate of an organic compound, the rate onset temperature may be in the range of 200 to 255° C. If the rate onset temperature is below 200° C. the evaporation may be too rapid and therefore difficult to control. If the rate onset temperature is above 255° C. the evaporation rate may be too low which may result in low tact time and decomposition of the organic compound in VTE source may occur due to prolonged exposure to elevated temperatures.
The rate onset temperature is an indirect measure of the volatility of a compound. The higher the rate onset temperature the lower is the volatility of a compound.

Data set [3] in a line: Decomposition temperature Tdec by TGA-DSC. The note with it: onset of decomposition in TGA, 10 K/min, nitrogen. Here is the method:
The decomposition temperature Tdec is measured by loading a sample of 9 to 11 mg into a Mettler Toledo 100 μL aluminum pan without lid under nitrogen in a Mettler Toledo TGA-DSC 1 machine. The following heating program was used: 25° C. isothermal for 3 min; 25° C. to 600° C. with 10 K/min. The decomposition temperature was determined based on the onset of the decomposition in TGA.

Data set [4] is described as follows: Solubility in benzonitrile.

Turning to `CC(=O)C=C(C)[O-].CC(=O)C=C(C)[O-].[Cu+2]` [CC-1, Cu(acac)2], the “Sublimation temperature Tsubl” value in data set [1] was 110-120 °C. Also, in data set [2], the “Rate onset temperature TRO” value was below 100 °C. This compound also yielded a Tdec in data set [3] above 280 °C.

For the compound `CC(=O)/C=C(\[O-])C(F)(F)F.CC(=O)/C=C(\[O-])C(F)(F)F.[Cu+2]` [CC-2, Cu(tfac)2], the “Sublimation temperature Tsubl” value in data set [1] was 95-100 °C. For the same compound, in data set [2], the “Rate onset temperature TRO” value was below 100 °C. Also, the Tdec in data set [3] was above 185 °C.

As for `CC(=O)C=C([O-])C(F)(F)F.CC(=O)C=C([O-])C(F)(F)F.CC(=O)C=C([O-])C(F)(F)F.[Bi+3]` [CC-3, Bi(tfac)3], the “Sublimation temperature Tsubl” value in data set [1] is “decomposition”. The “Rate onset temperature TRO” value in data set [2] is below 100 °C. Also, in data set [3], the Tdec is above 100 °C.

For the compound `O=C(C=C([O-])C(F)(F)F)C(F)(F)F.O=C(C=C([O-])C(F)(F)F)C(F)(F)F.O=C(C=C([O-])C(F)(F)F)C(F)(F)F.[Bi+3]` [CC-4, Bi(hfac)3], the “Sublimation temperature Tsubl” value in data set [1] is on record as “decomposition”. Also, the “Rate onset temperature TRO” value in data set [2] is below 100 °C.

Turning to `CC(C)(C)C(=O)C=C([O-])C(F)(F)C(F)(F)C(F)(F)F.CC(C)(C)C(=O)C=C([O-])C(F)(F)C(F)(F)C(F)(F)F.CC(C)(C)C(=O)C=C([O-])C(F)(F)C(F)(F)C(F)(F)F.[Bi+3]` [CC-5, Bi(fod)3], the “Sublimation temperature Tsubl” value in data set [1] came to 120 °C. Also, the “Rate onset temperature TRO” value in data set [2] is below 100 °C. The Tdec in data set [3] was above 200 °C.

With `CC(C)(C)/C([O-])=C/C(=O)C(F)(F)C(F)(F)C(F)(F)F.CC(C)(C)/C([O-])=C/C(=O)C(F)(F)C(F)(F)C(F)(F)F.CC(C)(C)/C([O-])=C/C(=O)C(F)(F)C(F)(F)C(F)(F)F.[La+3]` [CC-6, La(fod)3], the “Sublimation temperature Tsubl” value in data set [1] was 170 °C. Also, the “Rate onset temperature TRO” value in data set [2] is 101 °C. Moreover, the Tdec in data set [3] is above 260 °C.

With `N#C/C(C(=O)c1cc(C(F)(F)F)cc(C(F)(F)F)c1)=C(/[O][Cu][O]/C(=C(/C#N)C(=O)c1cc(C(F)(F)F)cc(C(F)(F)F)c1)c1cc(C(F)(F)F)cc(C(F)(F)F)c1)c1cc(C(F)(F)F)cc(C(F)(F)F)c1` [MC-1, bis(((Z)-1,3-bis(3,5-bis(trifluoromethyl)phenyl)-2-cyano-3-oxoprop-1-en-1-yl)oxy)copper], the “Sublimation temperature Tsubl” value in data set [1] worked out at 261 °C. For the same compound, in data set [2], the “Rate onset temperature TRO” value is 204 °C. In data set [3], the Tdec was above 319 °C.

Take `N#C/C(C(=O)C(F)(F)C(F)(F)F)=C(/[O][Cu][O]/C(=C(/C#N)C(=O)C(F)(F)C(F)(F)F)c1ccc(-c2cc(C(F)(F)F)cc(C(F)(F)F)c2)cc1)c1ccc(-c2cc(C(F)(F)F)cc(C(F)(F)F)c2)cc1` [MC-2, bis(((Z)-1-(3′,5′-bis(trifluoromethyl)-[1,1′-biphenyl]-4-yl)-2-cyano-4,4,5,5,5-pentafluoro-3-oxopent-1-en-1-yl)oxy)copper]: the “Sublimation temperature Tsubl” value in data set [1] is given as “decomposition”. In addition, the Solubility in benzonitrile in data set [4] (at 20° C.) was above 10 mg/mL. Moreover, in data set [3], the Tdec is above 330 °C.

In the case of `C/C(C(=O)c1ccnc(C(F)(F)F)c1)=C(/[O][Cu][O]/C(=C(/C)C(=O)c1ccnc(C(F)(F)F)c1)c1ccnc(C(F)(F)F)c1)c1ccnc(C(F)(F)F)c1` [MC-3, bis(((Z)-2-methyl-3-oxo-1,3-bis(2-(trifluoromethyl)pyridin-4-yl)prop-1-en-1-yl)oxy)copper], in data set [1], the “Sublimation temperature Tsubl” value is “decomposition”. Besides, the Solubility in benzonitrile in data set [4] (at 60° C. (footnote 2)) is listed as 10 mg/ml^2). In addition, the Tdec in data set [3] was above 300 °C.
